Test results taken from PubChem BioAssay AID179 (DTP/NCI, 2004).
The source made the active and inactive calls.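 Rule for the calls: active = compounds giving half or more protection of infected cells from virus-caused growth loss, again on retest; inactive = the rest.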 Where a SMILES comes first, the peptide text is derived from it. The star is where a group is joined. Boc = CC(C)(C)OC(=O)*

Test system: CEM cells HIV-1 protection, formazan growth assay
Assay: NCI AIDS Antiviral Assay
Conditions: for IC50: measured here: growth of uninfected CEM cells
Procedure, shortened: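 Steps: treat uninfected and HIV-1-infected human CEM cells at five drug levels; quantify growth by soluble formazan; retest any compound reaching 50% protection; classify actives from the retest.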

| SMILES | EC50 [µM] | IC50 [µM] | outcome |
| --- | --- | --- | --- |
| CCCCN(CCCC)C(=O)C(=O)C(C(=O)c1ccc(OC)cc1)c1ccc(OC)cc1 (stereo not given) | > 11.7 | > 11.7 | – |
| CCCCCCCCCCCCCCCCCC[N+](C)(C)Cc1ccc(C[N+](C)(C)CCCCCCCCCCCCCCCCCC)cc1 | – | – | inactive |
| NC(CCC(=O)NC(CS)C(=O)NCC(=O)O)C(=O)O (stereo not given) | > 288 | > 288 | – |
| CC1CCCC(C(=O)CC2CC(=O)NC(=O)C2)C1=O (stereo not given) | > 200 | > 200 | – |
| COc1ccccc1C1SCc2nc3ccccc3n21 (stereo not given) | > 91.2 | 36.3 | – |
| Cc1csc(NNC(N)=O)n1 | > 200 | > 200 | – |
| CNC(=S)Nc1ccc(OC)c2ccccc12 | > 200 | > 200 | – |
| C=CC1(c2ccc3ccccc3c2)OCC(CC)O1 (stereo not given) | > 200 | 87.1 | – |
| COc1ccc(C2NCCc3c2[nH]c2ccccc32)cc1 (stereo not given) | – | – | inactive |
| CCOc1ccccc1C1N2CCN(CC2)C(c2ccccc2OCC)N2CCN1CC2 (stereo not given) | – | – | inactive |
| CC1=CC(=C(c2ccc(N)c(S(=O)(=O)O)c2)c2ccc(N)c(S(=O)(=O)O)c2)C=C(S(=O)(=O)O)C1=N | – | – | inactive |
| S=C1NC2=C(COC/C2=C\c2ccccc2Cl)C(c2ccccc2Cl)N1 (stereo not given) | – | – | inactive |
| CSc1c(C(=O)Nc2ccccc2)c(N)nn1-c1ccccc1 | > 200 | 70.8 | – |
| Cc1ccc(S(=O)(=O)N/N=C(/c2ccccc2)c2ccsc2C)cc1 | > 200 | 29.5 | – |
| Cc1ccc(-n2c3nc(=O)n(C)c(=O)c-3cc3c(OCc4ccccc4)cccc32)cc1 | > 19.5 | > 19.5 | – |
| O=C(CC1(O)C(=O)Nc2c(Cl)ccc(Cl)c21)c1ccc(Cl)cc1Cl (stereo not given) | > 12.9 | > 12.9 | – |
| O=C(Nc1ccc(C2=NCCCN2)cc1)c1ccc(NC(=O)c2ccc(C3=NCCCN3)cc2)cc1 | > 200 | 67.6 | – |
| O=S(=O)(NCCSSCCNS(=O)(=O)c1ccc2ccccc2c1)c1ccc2ccccc2c1 | > 200 | 64.6 | – |
| O=C(C#CP(=O)(O)c1ccccc1)c1ccccc1 | > 200 | > 200 | – |
| O=[N+]([O-])c1ccc(OCc2nc3ccccc3[nH]2)cc1 | > 200 | 87.1 | – |
| CC1=C2C(O)C(C(C)CO)C(O)CC2(C)C(O)CC1 (stereo not given) | – | – | inactive |

| SMILES | EC50 [µM] | IC50 [µM] | outcome |
| --- | --- | --- | --- |
| O=[N+]([O-])C(C(Cl)=C(Cl)Cl)=C(N1CCOCC1)N1CCOCC1 | > 200 | 123 | – |
| Cn1c(=O)ccc2ccc(N(CCO)CCO)nc21 | > 200 | > 200 | – |
| Cc1ccccc1-c1nc2c(N)nc(N)nc2nc1N | – | – | inactive |
| COC(=O)/C([O-])=C(\C(=O)OC)[n+]1cc(Br)cc2ccccc21 | > 200 | 77.6 | – |
| O=C(/C=C/c1ccc(O)c(O)c1)OCc1ccccc1 | > 12 | 11.2 | – |
| CC(=O)OC1C2C(=C(C)C(=O)O[C@@H]2c2ccoc2)[C@@]2(C)CC3CC(C)(C(=O)O3)C12 (stereo not given in full) | > 200 | > 200 | – |
| Nc1nc(Cl)c(N)c(NCC2(CO)CCC2)n1 | > 200 | 115 | – |
| CC1=Nn2c(nc3sc4c(c3c2=O)CCCC4)SC1 | – | – | inactive |
| c1ccc(NC2(c3nnnn3C3CCCCC3)CCNCC2)cc1 | > 200 | 34.7 | – |
| OC1[C@H](O)CN(OCc2ccccc2)C[C@@H]1O (stereo not given in full) | > 200 | > 200 | – |
| CC(=O)OCC12C(=O)C[C@@H](C)C3(CC(c4ccoc4)OC3=O)C1CCC(OC(C)=O)C21CO1 (stereo not given in full) | > 200 | 135 | – |
| O=C1NC(=O)C2C3C(C(O)(c4ccccc4)c4ccccn4)=CC(/C3=C(\c3ccccc3)c3ccccn3)C12 (stereo not given) | > 200 | 53.7 | – |
| CC[C@@H]1CC2CN3CCc4c([nH]c5ccc(OC)cc45)C(CO)(C2)C13 (stereo not given in full) | – | – | inactive |
| Cc1cn([C@H]2C[C@@H]3[C@@H](COC(CCC[Se]c4ccccc4)N3O)O2)c(=O)[nH]c1=O (stereo not given in full) | 13.2 | 117 | – |
| C=CC(C)NC(=S)NNC(=S)NC (stereo not given) | > 200 | 89.1 | – |
| CCOP(=S)(NN=C1CCCC1)OCC | > 200 | > 200 | – |
| C1=Cc2nc1c(-c1ccncc1)c1ccc([n-]1)c(-c1ccncc1)c1nc(c(-c3ccncc3)c3ccc([n-]3)c2-c2ccncc2)C=C1.[Zn+2] | > 19.1 | > 19.1 | – |
| CC(C)(C)OC(=O)NC(Cc1ccc(O)cc1)C(=O)NC(CCCCN)C(=O)O (stereo not drawn) (Boc-Tyr-Lys-OH; configuration not given here) | > 200 | 91.2 | – |
| CCOC(=O)c1cccc2c(Nc3ccc(S(=O)(=O)Nc4cc(C)on4)cc3)c3ccccc3nc12 | > 200 | 25.1 | – |
| O=C1NNC2NC(=O)C3(NN2C1=O)c1ccccc1-c1ccccc13 (stereo not given) | > 100 | > 100 | – |
| CO[C@H]1CC[C@@]2(C)C(CC[C@@]3(C)CC4=C[C@H]5C(C)(CO)C(=O)CCC5(C)[C@H]4CCC32)C1(C)C (stereo not given in full) | > 100 | > 100 | – |

| SMILES | EC50 [µM] | IC50 [µM] | outcome |
| --- | --- | --- | --- |
| O=C1CN(S(=O)(=O)c2ccc([N+](=O)[O-])cc2)CC(=O)CN(S(=O)(=O)c2ccc([N+](=O)[O-])cc2)CC(=O)CN(S(=O)(=O)c2ccc([N+](=O)[O-])cc2)C1 | > 200 | > 200 | – |
| COc1cc(/C=C/C=C2\CC(C)C/C(=C\C=C\c3ccc(O)c(OC)c3)C2=O)ccc1O (stereo not given) | > 200 | 1.41 | – |
| CO/C=C/CCCN(C1CCCCC1)C(C#N)c1ccccc1 (stereo not given) | > 16.6 | > 16.6 | – |
| Cc1cc([N+](=O)[O-])ccc1Nc1cccc(Cl)c1C | – | – | inactive |
| CC1(Cl)CCC2(CC1Br)C(C)(C)C(Br)=CC1OC12C (stereo not given) | > 200 | 33.9 | – |
| C=CCNC(=S)/N=C/C(C(=O)Nc1ccccc1)=C(/C)O | > 200 | > 200 | – |
| CCc1cccc(CC)c1NC(=O)C1=C(C)NC(C)=C(C(=O)Nc2c(CC)cccc2CC)C1c1ccc([N+](=O)[O-])cc1 | > 44.7 | > 44.7 | – |
| CC(C)C1CCC/C=C/C=C/C=C/C=C/C(OC2OC(C)C(O)C(N)C2O)CC2OC(O)(CC(O)CC(O)C(O)CCC(=O)O1)CC(O)C2C(=O)O (stereo not given) | > 339 | > 339 | – |
| O=C(N/N=C/c1ccc(O)cc1)c1ccc(OCc2nc3ccccc3[nH]2)cc1 | > 200 | > 200 | – |
| CC1CCN(C(C)C)P(=S)(Cc2ccccc2)O1 (stereo not given) | > 200 | 123 | – |
| NNC(=O)CCC(NS(=O)(=O)c1ccc(Cl)cc1)C(=O)NN (stereo not given) | > 200 | 145 | – |
| O=S(=O)(OC1CC12CCCCC2c1ccccc1)c1ccccc1 (stereo not given) | > 200 | > 200 | – |
| O=c1ccn(-c2ccccn2)c(=O)n1-c1ccccn1 | – | – | inactive |
| O=C1c2c(O)cccc2Cc2cccc(O)c21 | – | – | inactive |
| C[C@@]12C[C@@H](c3ccccc3O1)N1CCCCSC1=N2 | > 200 | > 200 | – |
| O=C1c2ccccc2C(=O)N1OCCCCON1C(=O)c2ccccc2C1=O | > 200 | > 200 | – |
| Cc1nn(C)c2nc3ccc(Cl)cc3c(-c3ccccc3)c12 | > 200 | > 200 | – |
| CC(C)(C)[Si](C)(C)OCC1OC(n2ccc(=O)[nH]c2=O)C(C/C=[N+](/[O-])CC2OC(n3ccc(=O)[nH]c3=O)C(O[Si](C)(C)C(C)(C)C)C2O[Si](C)(C)C(C)(C)C)C1O[Si](C)(C)C(C)(C)C (stereo not given) | > 100 | 89.1 | – |
| CC(=O)OCCC(O[Si](c1ccccc1)(c1ccccc1)C(C)(C)C)C(C)(C)O (stereo not given) | – | – | inactive |
| Cc1ccc2c(c1)C1(C)OC(CC(N)C1O)O2 (stereo not given) | – | – | inactive |
